Source: US8426616B2, “Triptolide lactone ring derivatives as immunomodulators and anticancer agents” (priority 2004, dated 2013)
“Also recorded” adds a separate entry of the source.

Key:
[1] = tested on: human T cell lymphoma (Jurkat) cells; details: for cytotoxic activity (MTT assay), compound incubated in human serum: pre-incubation in human serum; for cytotoxic activity (MTT assay, OD570): 24 h culture with compound
Protocol: Test compounds were dissolved in DMSO at a concentration of 20 mM. Further dilutions were done in RPMI1640 medium (GIBCO, Rockville, Md.) supplemented with 10% Fetal Calf Serum (HyClone Laboratories, Logan, Utah).
Cytotoxicity of the compounds was determined in a standard MTT assay using Cell Proliferation Kit I (#1 465 007, Roche Diagnostics, Mannheim, Germany). Briefly, human T cell lymphoma (Jurkat) cells (4×10^5 per well) were cultured for 24 h, in 96-well tissue culture plates, in the presence of serial three-fold dilutions of test compounds or medium containing the same concentration of DMSO as in the test samples at each dilution point. The cultures were then supplemented with 10 μl/well MTT reagent for 4 h and then with 0.1 ml/well solubilizing reagent for an additional 16 h. Optical density at 570 nm (OD570) was measured on a ThermoScan microplate reader (Molecular Devices, Menlo Park, Calif.).
The data is presented as OD570 values versus concentration of the compounds. In this case, data is provided for both compounds incubated in human serum and in mouse serum, and for PG796 without incubation.

[2] = tested on: IL-2 production in Jurkat cells; assay type: cell-based, human; details: for inhibition of IL-2 production, compound incubated in human serum: pre-incubation in human serum; for inhibition of IL-2 production: Jurkat cells stimulated with anti-CD3 and PMA, 24 h
Protocol: Test samples were diluted to 1 mM in complete tissue culture medium. […] Cells from an exponentially expanding culture of Jurkat human T cell line (#TIB-152 obtained from American Type Culture Collection, Manassas, Va.) were harvested, washed once by centrifugation, re-suspended in complete tissue culture medium, and diluted to a concentration of 2×10^6 cells/ml. A volume of 50 μl of Jurkat cells (1×10^5 cells) was added to wells containing 100 μl of the diluted compounds, 50 μl of PMA (10 ng/ml) was added to each well, and the plates were incubated at 37° C. in a 5% CO2 incubator. After 24 hours, the plates were centrifuged to pellet the cells, 150 μl of supernatant was removed from each well, and the samples were stored at −20° C. The stored supernatants were analyzed for human IL-2 concentration using the Luminex 100 (Luminex Corporation, Austin, Tex.), Luminex microspheres coupled with anti-IL-2 capture antibody, and fluorochrome-coupled anti-IL-2 detection antibody. The data were expressed as pg/ml of IL-2.
The data were plotted as the concentration of compound versus IL-2 concentration. In this case, data is provided for both compounds incubated in human serum and in mouse serum, and for PG796 without incubation.

| SMILES | cytotoxic activity (MTT assay), compound incubated in human serum [1] | inhibition of IL-2 production, compound incubated in human serum ([2]; Jurkat cells) | cytotoxic activity (MTT assay, OD570) [1] | cytotoxic activity (MTT assay), compound incubated in mouse serum ([1]; pre-incubation in mouse serum) | cytotoxic activity (MTT assay), compound unincubated ([1]; without serum incubation, compared with serum-incubated compound) | inhibition of IL-2 production [2] | inhibition of IL-2 production, compound incubated in mouse serum ([2]; Jurkat cells, pre-incubation in mouse serum) | inhibition of IL-2 production, compound unincubated ([2]; Jurkat cells, without serum incubation, compared with serum-incubated compound) |
| --- | --- | --- | --- | --- | --- | --- | --- | --- |
| CC(C)[C@]12O[C@H]1[C@@H]1O[C@]13[C@]1(O[C@H]1C[C@H]1C4=C(CC[C@@]13C)C(=O)OC4)[C@@H]2OC(=O)CCC(=O)O [triptolide 14-succinate, reference compound] | much less active in these assays than triptolide 14-succinate incubated in mouse serum | much less active in these assays than triptolide 14-succinate incubated in mouse serum | – | – | – | – | – | – |
| CC(C)[C@]12O[C@H]1[C@@H]1O[C@]13[C@]1(O[C@H]1C[C@H]1c4c(C(=O)c5ccccc5)oc(OC(=O)c5ccccc5)c4CC[C@@]13C)[C@@H]2O [PG796, 18-deoxo-19-dehydro-18-benzoyloxy-19-benzoyl triptolide] | high, and essentially equivalent, activity | high, and essentially equivalent, activity | cytotoxic to Jurkat cells; also recorded: higher level of activity in both assays than the known prodrug, triptolide 14-succinate | high, and essentially equivalent, activity | nearly equivalent activity | higher level of activity in both assays than the known prodrug, triptolide 14-succinate; also recorded: inhibited IL-2 production | high, and essentially equivalent, activity | nearly equivalent activity |
| CC1OC(=O)C2=C1[C@@H]1C[C@@H]3O[C@@]34[C@H](O)[C@@]3(C(C)C)O[C@H]3[C@@H]3O[C@@]34[C@@]1(C)CC2 (stereo partly drawn) [PG795, 19-methyl triptolide] | – | – | cytotoxic to Jurkat cells; also recorded: significant activity; also recorded: less active than triptolide | – | – | significant activity; also recorded: less active than triptolide; also recorded: inhibited IL-2 production | – | – |
